Test results from patent US20160002204A1 (Board of Regents, The University of Texas System, priority 2014, published 2016).

Legend:
[1] = molecular target: T1, GLS1 (purified recombinant human GAC) (Homo sapiens, UniProt O94925); assay: GLS1 enzymatic activity assay (dual-coupled, Amplex UltraRed/resorufin); type: biochemical
T1 sequence (O94925 55-598 isoform O94925-3 limits assumed): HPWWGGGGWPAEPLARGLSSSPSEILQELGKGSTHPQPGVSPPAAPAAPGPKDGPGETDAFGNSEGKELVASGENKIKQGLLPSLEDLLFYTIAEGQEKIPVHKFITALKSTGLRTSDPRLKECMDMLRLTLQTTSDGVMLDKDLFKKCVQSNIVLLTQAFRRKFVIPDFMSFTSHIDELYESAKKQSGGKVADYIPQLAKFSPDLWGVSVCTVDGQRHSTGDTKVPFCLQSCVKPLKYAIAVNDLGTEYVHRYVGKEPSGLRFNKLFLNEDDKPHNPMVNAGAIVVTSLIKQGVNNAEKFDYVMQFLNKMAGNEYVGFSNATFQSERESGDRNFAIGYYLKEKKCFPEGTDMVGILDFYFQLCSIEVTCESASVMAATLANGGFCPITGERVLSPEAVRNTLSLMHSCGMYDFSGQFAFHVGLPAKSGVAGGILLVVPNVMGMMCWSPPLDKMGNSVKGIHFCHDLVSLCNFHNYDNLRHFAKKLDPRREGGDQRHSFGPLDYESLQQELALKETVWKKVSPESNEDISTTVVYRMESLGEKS
In short: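 In this coupled fluorometric format, phosphate-activated GAC (2 nM, 50 mM phosphate) is pre-exposed to compound for 10 min before 1 mM glutamine addition. Product is tracked as resorufin (530/590 nm) over time or at 20 min, and potency is derived by logistic fitting.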

A549 cells = assay: A549 proliferation (viability) assay, Cell Titer Fluor, 72 hours; type: cell-based; details: Homo sapiens
In short: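 1000 A549 cells/well, RPMI 1640/10% dialyzed FBS, 24 h attach; compound 72 h, 0.5% DMSO, 37 °C/5% CO2; Cell Titer Fluor fluorescence; EC50 via 4-parameter logistic.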

| SMILES | IC50 [1] [nM] | EC50 (A549 cells) [nM] |
| --- | --- | --- |
| O=C(NCc1cc(C(F)(F)F)ccn1)c1cn(CC(F)CCn2ccc(NC(=O)[C@@H](O)c3ccccc3)c(F)c2=O)nn1 (stereo partly drawn) [Example 326, 1-(2-fluoro-4-{3-fluoro-4-[(2S)-2-hydroxy-2-phenylacetamido]-2-oxo-1,2-dihydropyridin-1-yl}butyl)-N-{[4-(trifluoromethyl)pyridin-2-yl]methyl}-1H-1,2,3-triazole-4-carboxamide] | < 100 | < 100 |
| O=C(NCc1cccc(OC(F)(F)F)c1)c1cn(CC(F)CCn2ccc(NC(=O)C(F)c3ccccc3)c(F)c2=O)nn1 (stereo not shown) [Example 327, 1-{2-fluoro-4-[3-fluoro-4-(2-fluoro-2-phenylacetamido)-2-oxo-1,2-dihydropyridin-1-yl]butyl}-N-{[3-(trifluoromethoxy)phenyl]methyl}-1H-1,2,3-triazole-4-carboxamide] | < 100 | < 100 |
| O=C(Cc1ccccc1F)Nc1ccn(CCC(F)Cn2cc(C(=O)NCc3cccc(OC(F)(F)F)c3)nn2)c(=O)c1F (stereo not shown) [Example 328, 1-(2-fluoro-4-{3-fluoro-4-[2-(2-fluorophenyl)acetamido]-2-oxo-1,2-dihydropyridin-1-yl}butyl)-N-{[3-(trifluoromethoxy)phenyl]methyl}-1H-1,2,3-triazole-4-carboxamide] | < 100 | < 100 |
| O=C(CC1CCCC1)Nc1ccn(CCC(F)Cn2cc(C(=O)NCc3cc(C(F)(F)F)ccn3)nn2)c(=O)c1F (stereo not shown) [Example 329, 1-{4-[4-(2-cyclopentylacetamido)-3-fluoro-2-oxo-1,2-dihydropyridin-1-yl]-2-fluorobutyl}-N-{[4-(trifluoromethyl)pyridin-2-yl]methyl}-1H-1,2,3-triazole-4-carboxamide] | < 100 | < 100 |
| CC(C)(C)OC(=O)Nc1ccn(CCC(F)Cn2cc(C(=O)NCc3cncc(C(F)(F)F)c3)nn2)c(=O)c1F (stereo not shown) [Example 330, tert-butyl N-(3-fluoro-1-{3-fluoro-4-[4-({[5-(trifluoromethyl)pyridin-3-yl]methyl}carbamoyl)-1H-1,2,3-triazol-1-yl]butyl}-2-oxo-1,2-dihydropyridin-4-yl)carbamate] | < 100 | 100 to 500 |
| Nc1ccn(CCC(F)Cn2cc(C(=O)NCc3cncc(C(F)(F)F)c3)nn2)c(=O)c1F (stereo not shown) [Example 331, 1-[4-(4-amino-3-fluoro-2-oxo-1,2-dihydropyridin-1-yl)-2-fluorobutyl]-N-{[5-(trifluoromethyl)pyridin-3-yl]methyl}-1H-1,2,3-triazole-4-carboxamide] | 500 to 5000 | > 5000 |
| O=C(CC1CCC1)Nc1ccn(CCC(F)Cn2cc(C(=O)NCc3cc(C(F)(F)F)ccn3)nn2)c(=O)c1F (stereo not shown) [Example 332, 1-{4-[4-(2-cyclobutylacetamido)-3-fluoro-2-oxo-1,2-dihydropyridin-1-yl]-2-fluorobutyl}-N-{[4-(trifluoromethyl)pyridin-2-yl]methyl}-1H-1,2,3-triazole-4-carboxamide] | < 100 | < 100 |
| O=C(Nc1ccn(CCC(F)Cn2cc(C(=O)NCc3cc(C(F)(F)F)ccn3)nn2)c(=O)c1F)C(=O)c1ccccc1 (stereo not shown) [Example 333, 1-{2-fluoro-4-[3-fluoro-2-oxo-4-(2-oxo-2-phenylacetamido)-1,2-dihydropyridin-1-yl]butyl}-N-{[4-(trifluoromethyl)pyridin-2-yl]methyl}-1H-1,2,3-triazole-4-carboxamide] | < 100 | < 100 |
| O=C(Cc1ccc(F)cc1F)Nc1ccn(CCC(F)Cn2cc(C(=O)NCc3cccc(OC(F)(F)F)c3)nn2)c(=O)c1F (stereo not shown) [Example 334, 1-(4-{4-[2-(2,4-difluorophenyl)acetamido]-3-fluoro-2-oxo-1,2-dihydropyridin-1-yl}-2-fluorobutyl)-N-{[3-(trifluoromethoxy)phenyl]methyl}-1H-1,2,3-triazole-4-carboxamide] | < 100 | < 100 |
| O=C(Cc1c(F)cccc1F)Nc1ccn(CCC(F)Cn2cc(C(=O)NCc3cccc(OC(F)(F)F)c3)nn2)c(=O)c1F (stereo not drawn) [Example 335, l-(4-{4-[2-(2,6-difluorophenyl)acetamido]-3-fluoro-2-oxo-1,2-dihydropyridin-1-yl}-2-fluorobutyl)-N-{[3-(trifluoromethoxy)phenyl]methyl}-1H-1,2,3-triazole-4-carboxamide] | < 100 | 100 to 500 |
| O=C(CC1CCC1)Nc1ccn(CCC(F)Cn2cc(C(=O)NCc3cccc(C(F)(F)F)n3)nn2)c(=O)c1F (stereo not shown) [Example 336, 1-{4-[4-(2-cyclobutylacetamido)-3-fluoro-2-oxo-1,2-dihydropyridin-1-yl]-2-fluorobutyl}-N-{[6-(trifluoromethyl)pyridin-2-yl]methyl}-1H-1,2,3-triazole-4-carboxamide] | < 100 | < 100 |
| CC(C(=O)Nc1ccn(CCC(F)Cn2cc(C(=O)NCc3cccc(OC(F)(F)F)c3)nn2)c(=O)c1F)N1CCCCC1 (stereo not shown) [Example 337, 1-(2-fluoro-4-(3-fluoro-2-oxo-4-(2-(piperidin-1-yl)propanamido)pyridin-1(2H)-yl)butyl)-N-(3-(trifluoromethoxy)benzyl)-1H-1,2,3-triazole-4-carboxamide] | < 100 | < 100 |
| O=C(CN1CCCCC1)Nc1ccn(CCC(F)Cn2cc(C(=O)NCc3cccc(C(F)(F)F)n3)nn2)c(=O)c1F (stereo not shown) [Example 338, 1-(2-fluoro-4-{3-fluoro-2-oxo-4-[2-(piperidin-1-yl)acetamido]-1,2-dihydropyridin-1-yl}butyl)-N-{[6-(trifluoromethyl)pyridin-2-yl]methyl}-1H-1,2,3-triazole-4-carboxamide] | 100 to 500 | 100 to 500 |
| O=C(CC1CCC1)Nc1ccn(CCC(F)Cn2cc(C(=O)NCc3cccc(OC(F)(F)F)c3)nn2)c(=O)c1F (stereo not shown) [Example 339, 1-{4-[4-(2-cyclobutylacetamido)-3-fluoro-2-oxo-1,2-dihydropyridin-1-yl]-2-fluorobutyl}-N-{[3-(trifluoromethoxy)phenyl]methyl}-1H-1,2,3-triazole-4-carboxamide] | < 100 | < 100 |
| CC(C)(C)CC(=O)Nc1ccn(CCC(F)Cn2cc(C(=O)NCc3cccc(OC(F)(F)F)c3)nn2)c(=O)c1F (stereo not shown) [Example 340, 1-{4-[4-(3,3-dimethylbutanamido)-3-fluoro-2-oxo-1,2-dihydropyridin-1-yl]-2-fluorobutyl}-N-{[3-(trifluoromethoxy)phenyl]methyl}-1H-1,2,3-triazole-4-carboxamide] | < 100 | < 100 |
| O=C(NCc1cccc(OC(F)(F)F)c1)c1cn(CC(F)CCn2ccc(NC(=O)C3CCCCC3)c(F)c2=O)nn1 (stereo not shown) [Example 341, 1-[4-(4-cyclohexaneamido-3-fluoro-2-oxo-1,2-dihydropyridin-1-yl)-2-fluorobutyl]-N-{[3-(trifluoromethoxy)phenyl]methyl}-1H-1,2,3-triazole-4-carboxamide] | < 100 | < 100 |
| O=C(NCc1cccc(OC(F)(F)F)c1)c1cn(CC(F)CCn2ccc(NC(=O)C3CCCC3)c(F)c2=O)nn1 (stereo not shown) [Example 342, 1-[4-(4-cyclopentaneamido-3-fluoro-2-oxo-1,2-dihydropyridin-1-yl)-2-fluorobutyl]-N-{[3-(trifluoromethoxy)phenyl]methyl}-1H-1,2,3-triazole-4-carboxamide] | < 100 | < 100 |
